Reference: US7351857B2, “Methods of using substituted tetralins and indanes” (Janssen Pharmaceutica N.V., priority 2002, dated 2008)

Biological target: T1, PPARδ (Homo sapiens, UniProt Q03181)
T1 sequence (Q03181 171-441 limits assumed): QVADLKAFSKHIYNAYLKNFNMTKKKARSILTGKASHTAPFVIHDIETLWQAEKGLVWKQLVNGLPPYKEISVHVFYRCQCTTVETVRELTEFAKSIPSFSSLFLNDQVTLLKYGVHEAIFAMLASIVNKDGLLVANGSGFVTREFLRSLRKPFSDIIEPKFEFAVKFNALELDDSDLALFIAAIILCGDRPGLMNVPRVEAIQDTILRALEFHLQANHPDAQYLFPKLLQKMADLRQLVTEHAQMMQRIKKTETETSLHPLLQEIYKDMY
Test: Transfection assay for PPARδ receptors (PPAR-Gal4 / Gal4-luciferase reporter in HEK293 cells)
Type: cell-based
Settings: for PPARδ FI (fold induction): unbracketed values, PPARδ standard FI = 36.1
Protocol: HEK293 cells were grown in DMEM/F-12 Media supplemented with 10% FBS and glutamine (GIBCOBRL). The cells were co-transfected with DNA for PPAR-Gal4 receptor and Gal4-Luciferase Reporter using the DMRIE-C Reagent. On the following day, the DNA-containing medium were replaced with 5% Charcoal treated FBS growth medium. After six hours, cells were seeded in 96 well plate and incubated at 37° C. in CO2 incubator overnight. Cells were challenged by test compounds and incubated for 24 hours at 37° C. in 5% CO2 incubator. Luciferase activity was assayed using the Steady-Glo Luciferase Assay Kit from Promega. DMRIE-C Reagent was purchased from GIBCO Cat. No. 10459-014. OPTI-MEM I Reduced Serum Medium was purchased from GIBCO Cat. No. 31985. Steady-Glo Luciferase Assay Kit was obtained from Promega Part# E254B.

PPARδ FI (fold induction) | EC50 (bracketed values) [µM] | SMILES
0.8 |  | CCN(C(=O)Nc1ccc(N(C)C)cc1)C1Cc2ccc(SC(C)(C)C(=O)O)cc2C1 (stereo not shown) [Example 7, 2-{2-[3-(4-Dimethylaminophenyl)-1-ethylureido]indan-5-ylsulfanyl}-2-methylpropionic acid]
4.5 |  | CCN(C(=O)Nc1ccc(OC(F)(F)F)c(Br)c1)C1Cc2ccc(SC(C)(C)C(=O)O)cc2C1 (stereo not shown) [Example 25, 2-{2-[3-(3-Bromo-4-trifluoromethoxyphenyl)-1-ethylureido]indan-5-ylsulfanyl}-2-methylpropionic acid]
2.1 |  | CCN(C(=O)Nc1cccc(OC(F)(F)F)c1)C1Cc2ccc(SC(C)(C)C(=O)O)cc2C1 (stereo not shown) [Example 26, 2-{2-[1-Ethyl-3-(3-trifluoromethoxyphenyl)ureido]indan-5-ylsulfanyl}-2-methylpropionic acid]
1.5 |  | CCCN(C(=O)Nc1ccc(OC)cc1)C1Cc2ccc(SC(C)(C)C(=O)O)cc2C1 (stereo not shown) [Example 32, 2-{2-[3-(4-Methoxyphenyl)-1-propylureido]indan-5-ylsulfanyl}-2-methylpropionic acid]
0.8 |  | CCCN(C(=O)Nc1cc(C)cc(C)c1)C1Cc2ccc(SC(C)(C)C(=O)O)cc2C1 (stereo not shown) [Example 33, 2-{2-[3-(3,5-Dimethylphenyl)-1-propylureido]indan-5-ylsulfanyl}-2-methylpropionic acid]
5.6 |  | CCCN(C(=O)Nc1ccc(C(F)(F)F)cc1)C1Cc2ccc(SC(C)(C)C(=O)O)cc2C1 (stereo not shown) [Example 35, 2-Methyl-2-{2-[1-propyl-3-(4-trifluoromethylphenyl)ureido]indan-5-ylsulfanyl}-propionic acid]
9.3 |  | CCCCCN(C(=O)Nc1ccc2ccccc2c1)C1Cc2ccc(SC(C)(C)C(=O)O)cc2C1 (stereo not shown) [Example 39, 2-Methyl-2-[2-(3-naphthalen-2-yl-1-pentylureido)indan-5-ylsulfanyl]propionic acid]

Continued, compound first:

SMILES | PPARδ FI (fold induction) | EC50 (bracketed values) [µM]
CCCCCCN(C(=O)Nc1ccc(SC(F)(F)F)cc1)C1Cc2ccc(SC(C)(C)C(=O)O)cc2C1 (stereo not shown) [Example 15, 2-Methyl-2-{2-[1-hexyl-3-(4-trifluoromethylsulfanylphenyl)ureido]indan-5-ylsulfanyl}propionic acid] | 1.2 | 
C=CCCCN(C(=O)Nc1ccc(OC(F)(F)F)cc1)C1Cc2ccc(SC(C)(C)C(=O)O)cc2C1 (stereo not shown) [Example 19, 2-Methy-2-{2-[1-pent-4-enyl-3-(4-trifluoromethoxyphenyl)ureido]indan-5-ylsulfanyl}propionic acid] | 1.4 | 
CC(C)(Sc1ccc2c(c1)CC(N(CCCC1CCCC1)C(=O)Nc1ccc(OC(F)(F)F)cc1)C2)C(=O)O (stereo not shown) [Example 28, 2-{2-[1-(3-Cyclopentylpropyl)-3-(4-trifluoromethoxyphenyl)ureido]indan-5-ylsulfanyl}-2-methylpropionic acid] | 8.2 | 
CC(C)(Sc1ccc2c(c1)CC(N(CCCC1CCCC1)C(=O)Nc1ccccc1)C2)C(=O)O (stereo not shown) [Example 37, 2-{2-[1-(3-Cyclopentylpropyl)-3-phenylureido]indan-5-ylsulfanyl}-2-methylpropionic acid] | 1.9 | 
CCCN(C(=O)Nc1ccc(OC(F)(F)F)cc1)C1CCc2ccc(SC(C)(C)C(=O)O)cc2C1 (stereo not shown) [Example 46, 2-Methyl-2-{7-[1-propyl-3-(4-trifluoromethoxyphenyl)ureido}-5,6,7,8-tetrahydronaphthalen-2-ylsulfanyl}propionic acid] | 6.0 | 
CCN(C(=O)Nc1ccc(C(C)(C)C)cc1)C1CCc2cc(SC(C)(C)C(=O)O)c(OC)cc2C1 (stereo not shown) [Example 49, 2-{6-[3-(4-tert-Butylphenyl)1-ethylureido]-3-methoxy-5,6,7,8-tetrahydronaphthalen-2-ylsulfanyl}-2-methyl propionic acid] |  | > 3
